Data on five compounds can be found in EP2072514A1, “1(2)H-tetrazol-5-yl-phenyl-oxazolidinones as antibacterial agents” (Ferrer Internacional, S.A., priority 2007, dated 2009).

For orientation: MIC means the least concentration at which growth counts as inhibited. The term Ki denotes a dissociation constant, usually derived from enzyme kinetics or from competition with a known ligand. Higher therefore signals a looser hold on the target.

The subject of one experiment is S. Aureus MR. The experiment is described as follows: MIC by standard micro dilution method (NCCLS M7-A5). Format: cell-based, Staphylococcus aureus. As to conditions: Mueller-Hinton medium (cation-adjusted), 16-24 h at 35°C; for MIC: Staphylococcus aureus, read-out: Geometric Mean MIC.
The next experiment concerns S. epidermidis. The description is as above. Format: cell-based, Staphylococcus epidermidis. The settings on record: Mueller-Hinton medium (cation-adjusted), 16-24 h at 35°C; for MIC: Staphylococcus epidermidis, read-out: Geometric Mean MIC.
The next experiment has as its system S. pneumoniae. The description is as above. The experiment is classed as cell-based, Streptococcus pneumoniae. The settings on record: 20-24h at 35°C; for MIC: Streptococcus pneumoniae, 5% CO2, read-out: Geometric Mean MIC.
The target of another experiment is T1, human MAO-A (Homo sapiens, UniProt P21397).
T1 construct: purchased Gentest, BD, USA; host or cells: SF9 cells (membranes)
T1 sequence (P21397 1-527): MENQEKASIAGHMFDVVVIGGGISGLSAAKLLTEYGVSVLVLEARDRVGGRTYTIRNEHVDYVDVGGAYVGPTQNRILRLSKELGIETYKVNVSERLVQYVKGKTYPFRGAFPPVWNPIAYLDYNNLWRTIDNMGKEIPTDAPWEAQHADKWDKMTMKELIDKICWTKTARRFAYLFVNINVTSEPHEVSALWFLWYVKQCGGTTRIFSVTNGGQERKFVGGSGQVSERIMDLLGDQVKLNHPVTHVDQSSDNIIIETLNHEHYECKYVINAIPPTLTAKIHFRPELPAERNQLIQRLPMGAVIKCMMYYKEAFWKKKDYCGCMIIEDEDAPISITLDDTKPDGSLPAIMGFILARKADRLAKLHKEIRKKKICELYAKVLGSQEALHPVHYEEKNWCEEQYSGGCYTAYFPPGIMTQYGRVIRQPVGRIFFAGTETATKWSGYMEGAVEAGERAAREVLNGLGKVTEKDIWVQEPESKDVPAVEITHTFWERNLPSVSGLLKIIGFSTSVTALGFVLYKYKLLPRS
Description: In vitro MAO-A enzymatic activity (kynuramine substrate, fluorometry). Format: biochemical. As to conditions: membranes from SF9 cells expressing human MAO-A; kynuramine 30 µM, 37° for 40 min. As to the method:
(§1) MAO-A and MAO-B enzymatic activities were measured using membranes obtained from SF9 cells expressing either human MAO-A or human MAO-B (Gentest, BD, USA). Assays were done in blank 96-well micro titter plates using kynuramine as substrate and measuring the formation of 4-hydroxyquinoline by fluorescence at 340 nm/465 nm. Briefly, membranes with MAO-A (0.006 mg/mL protein) and MAO-B (0.015 mg/mL protein) were incubated with kynuramine, 30 µM), at 37° for 40 min in the presence of the compound in a final volume of 200 µL. Reactions were stopped by adding NaOH 2N and the reaction product, 4-hydroxyquinoline, was determined by fluorometry using a Tecan Ultra reader.

For a further experiment, the target named is T2, human MAO-B (Homo sapiens, UniProt P27338).
T2 construct: purchased Gentest, BD, USA; host or cells: SF9 cells (membranes)
T2 sequence (P27338 1-520): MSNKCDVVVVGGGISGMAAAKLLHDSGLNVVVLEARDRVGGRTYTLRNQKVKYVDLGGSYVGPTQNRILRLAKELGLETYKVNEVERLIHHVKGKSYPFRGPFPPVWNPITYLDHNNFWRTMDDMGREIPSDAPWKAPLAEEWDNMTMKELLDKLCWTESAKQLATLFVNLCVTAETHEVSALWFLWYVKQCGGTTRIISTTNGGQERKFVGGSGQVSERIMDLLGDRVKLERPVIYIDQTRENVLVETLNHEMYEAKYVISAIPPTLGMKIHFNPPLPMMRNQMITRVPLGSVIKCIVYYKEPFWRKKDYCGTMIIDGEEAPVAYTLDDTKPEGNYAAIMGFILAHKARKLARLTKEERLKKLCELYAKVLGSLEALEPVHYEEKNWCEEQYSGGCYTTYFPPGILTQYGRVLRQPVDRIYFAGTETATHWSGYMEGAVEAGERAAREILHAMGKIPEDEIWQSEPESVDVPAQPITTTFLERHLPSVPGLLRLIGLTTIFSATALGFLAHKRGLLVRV
The experiment is described as follows: In vitro MAO-B enzymatic activity (kynuramine substrate, fluorometry). The experiment is classed as biochemical. The settings on record: membranes from SF9 cells expressing human MAO-B; kynuramine 30 µM, 37° for 40 min. As to the method: as §1

Experiment [1] has as its system Moxarella, Pasteurella and Bacteroides spp. As to conditions: background art; cited from earlier work.

≈ marks a conversion by molar mass, not a printed value.

For the compound `CC(=O)NC[C@H]1CN(c2ccc(-c3nnnn3C)c(F)c2)C(=O)O1` [Example 2, N-[[(5S)-3-[3-fluoro-4-(1-methyl-1H-tetrazol-5-yl)-phenyl]-2-oxo-5-oxazolidinyl]methyl]acetamide], the minimal inhibitory concentration (MIC) with S. Aureus MR, in the experiment on S. epidermidis and with S. pneumoniae was 2 µg/mL (≈ 5.98 µM) in each case. Moreover, the Ki at human MAO-A was found to be 74.2 µM; on human MAO-B, 14.2 µM.

As to `CC(=O)NC[C@H]1CN(c2ccc(-c3nnn(CCO)n3)c(F)c2)C(=O)O1` [Example 7, N-[[(5S)-3-[3-fluoro-4-(2-hydroxyethyl-2H-tetrazol-5-yl)-phenyl]-2-oxo-5-oxazolidinyl]methyl]acetamide], the inhibitory constant (Ki) came to 28.8 µM at human MAO-A and 8.1 µM at human MAO-B.

Consider `CC(=O)NC[C@H]1CN(c2ccc(N3CCOCC3)c(F)c2)C(=O)O1` [Linezolid, N-[[(5S)-3-[3-fluoro-4-(4-morpholinyl)phenyl]-2-oxo-5-oxazolidinyl]methyl]acetamide, reference compound], for which the minimum inhibitory concentration (MIC) in the experiment on S. Aureus MR, in the experiment on S. epidermidis and in the experiment with S. pneumoniae was 1 µg/mL (≈ 2.96 µM) each time. Further, the MICs in experiment [1] was 2 to 8 µg/mL.

As for “N-[[(5S)-3-[3-fluoro-4-(1-hydroxyethyl-1H-tetrazol-5-yl)-phenyl]-2-oxo-5-oxazolidinyl]methyl]acetamide [Example 8]”, the “Geometric Mean MIC” value in the experiment with S. Aureus MR turned out to be 2 µg/mL; in the experiment on S. epidermidis it was 1 µg/mL; with S. pneumoniae (5% CO2), 2 µg/mL.

As for “N-[[(5S)-3-[3-fluoro-4-(2-acetoacetyl-2H-tetrazol-5-yl)-phenyl]-2-oxo-5-oxazolidinyl]methyl]acetamide [Example 6]”, the inhibitory constant (Ki) on human MAO-A came to 37.1 µM; at human MAO-B, 10.1 µM.
